# Test results from US20130065964A1, “PERITONEAL DIALYSIS SOLUTION” (UNIVERSIDAD DE CASTILLA LA MANCHA, priority 2010, published 2013).
# Assays:
# Assay in all cases: Real-time RT-PCR in PMCs from dialysed rats
# Format in all cases: in vivo, rat
# [1] = system: BAX; settings: peritoneal cells from rats dialysed four weeks, aliskiren 0.1 or 1 mg/Kg, FIG. 15
# Experimental: (§1) The rats were exposed daily for four weeks to carrier (saline serum), 1.5% PDF, 2.3% PDF or 4.5% PDF supplemented by carrier, 0.1 mg/Kg aliskiren or 1 mg/Kg aliskiren. The data is expressed as mean±SEM, n=6 rats per group. * p<0.05, compared to the group treated with carrier in the absence of aliskiren (carrier). # p<0.05, compared to their respective groups treated with PDFs in the absence of aliskiren.
# (§2) For in vivo studies, 78 female rats of the Sprague-Dawley female strain weighing 200-240 g (Charles River Breeding Laboratories) were used: fifty-four rats were assigned to the group of animals which had been administered high-glucose peritoneal dialysis solutions (PDF), which were divided into three different subgroups with eighteen rats each which were administered, respectively, three PDFs having different glucose concentrations (Fresenius Medical Car, Bad Homburg, Germany). Additionally, eighteen rats were administered a carrier (saline serum) and another six rats were used as a control group (not dialysed). […]
# (§3) At the end of the experimental period (four weeks), 30 ml of a commercial PDF with 2.3% glucose (Fresenius Medical Car, Bad Homburg, Germany) was administered intraperitoneally using a 22G needle. […] Their body weight was measured at the start and end of the experimental period. […]
# (§4) The blood and dialysate samples were centrifuged and stored at −20° C. The concentrations of creatinine and glucose in the serum and dialysate were measured using enzymatic methods. The peritoneal transport of solutes was calculated, on one hand, as the glucose concentration in the dialysate 2 hours after the PET relative to the initial glucose concentration in the PDF (D2/D0 glucose) and, on the other, as the dialysate/plasma creatinine concentration ratio (D2/P2 creatinine) 2 h after the PET. […]
# (§5) The RNA expression was evaluated by real-time RT-PCR in PMCs. […] RNA quality and concentration was evaluated by spectrophotometry (Infinite 200, Tecan, Salzburg, Austria) using 1 μl of the RNA sample. […]
# [2] = system: Bcl-2; settings: peritoneal cells from rats dialysed four weeks, aliskiren 0.1 or 1 mg/Kg, FIG. 16
# Experimental: as §1, §2, §3, §4, §5
# [3] = system: Collagen III; settings: peritoneal cells from rats dialysed four weeks, aliskiren 0.1 or 1 mg/Kg, FIG. 18
# Experimental: as §1, §2, §3, §4, §5
compound,measurement,setting,value
COCCCOc1cc(C[C@@H](C[C@H](N)[C@@H](O)C[C@H](C(=O)NCC(C)(C)C(N)=O)C(C)C)C(C)C)ccc1OC [aliskiren],RNAm expression of pro-apoptotic protein Bax,[1],reduced
same,RNAm expression of anti-apoptotic protein Bcl-2,[2],increased
same,RNAm expression of collagen III,[3],increased
